Data reported in PubChem BioAssay AID1626 (SRMLSC, 2009).

System: M. tuberculosis H37Rv growth inhibition
Assay: M. tuberculosis H37Rv growth inhibitors, H37Rv strain (AID 1626)
Conditions: for IC90: measured here: IC90 against H37Rv; for CC50: measured here: Vero cell cytotoxicity

Structure (SMILES) | IC50 | IC90 | CC50
O=[N+]([O-])c1cc(O)c2ncccc2c1 | 2.71 µM | 3.39 µM | 7.36 µM
Cc1ccc(NC(=O)CCSc2nnc(Cc3ccccc3)o2)cc1 | 16.5 µM | 29.3 µM | 
FC(F)(F)c1ccc(CN2C[C@@H]3C(c4ccc(Cl)nc4)C4(c5cccnc5)CC3(C4)[C@H]2c2ccccc2)cc1 (stereo partly specified) | 8.98 µM | 18 µM | > 40 µM
COC(=O)CSc1nnc(-c2ccc(NS(=O)(=O)c3ccccc3)cc2)o1 | 1.9 µM | 5.72 µM | 
OCCN1CCN(c2nc(-c3ccccc3)nc3c2oc2ccccc23)CC1 | 4.89 µM | 8.31 µM | 13.6 µM
O=C1C=C(c2cccs2)C[C@H](c2ccccc2)[C@H]1n1nnc([N+](=O)[O-])n1 | 3.8 µM | 7.5 µM | < 0.078 µM
Cc1scc(C(=O)NCc2ccco2)c1-c1ccccc1 | 2.81 µM | 9.77 µM | 
COc1ccccc1/C=C/C(=O)c1ccc(NC(C)=O)cc1 |  |  | 22.8 µM
COC(=O)Cc1ccc(NC(=O)c2ccc(Br)o2)cc1 |  | > 100 µM | 
Cc1ccccc1NC(=O)Nc1ccc(C(F)(F)F)cc1 |  | > 100 µM | 23.5 µM
COC(=O)c1cc(=O)n(-c2ccccc2)c(=Nc2ccccc2)s1 | 5.19 µM | 17.7 µM | 27.6 µM
O=C(OCC(=O)N1CCCCC1)c1cc2ccccc2cc1O | 1.62 µM | 10.6 µM | 
Cc1cc(N2CCCCC2)nc2ccc(NC(=O)c3ccc(Br)o3)cc12 | 1.69 µM | 3.38 µM | > 40 µM
Cc1nn(-c2ccccc2)c(N)c1C(c1ccc(C(C)C)cc1)c1c(C)nn(-c2ccccc2)c1N | 8.73 µM | 13 µM | > 40 µM
COc1ccc(-c2nnc(SCC(=O)Nc3cc(C)on3)o2)cc1 | 3.86 µM | 6.19 µM | > 40 µM
Cc1ccc(Nc2nc(CSc3nnc(-c4cccs4)o3)cs2)cc1 | 6.8 µM | 15.9 µM | > 40 µM
CCOc1ccc(N=c2scc(-c3ccccc3)n2CCO)cc1 | 35.1 µM | > 100 µM | 
CCN(CC)c1ccc(CNc2nc3ccccc3n2CCN2CCCCC2)cc1 | 36.7 µM | 43.8 µM | > 40 µM
Cc1ccc2nc(Cl)c(CNCc3ccccc3)cc2c1 | 5.64 µM | 14.1 µM | 
c1ccc(-c2ccc3c(c2)c2c4n3CCN=C4CCC2)cc1 | 10.7 µM | 14.9 µM | 24.7 µM
COc1cc(/C=C(/C#N)C(=O)Nc2ccc(C)cc2)ccc1Oc1nc(Cl)ncc1F |  |  | > 40 µM

Structure (SMILES) | IC50 | IC90 | CC50
Nc1nc(COc2ccc(Cl)cc2)cs1 |  | > 100 µM | 
C/C=C/c1ccc(OCC(=O)OCc2csc(Nc3ccc(C)cc3)n2)c(OC)c1 | 3.83 µM | 8.62 µM | 
Cc1cccc(N=C2NN=C(c3c(C)[nH]c4ccccc34)CS2)c1 | 10.4 µM | 16.3 µM | 38.6 µM
CC1C(c2ccccc2)N(C)C(c2ccccc2)CC1(O)c1ccccc1 (stereo unspecified) | 5.85 µM | 6.61 µM | > 40 µM
O=c1nc(/C=C/c2ccc(-c3ccc(F)cc3)o2)cc(C(F)(F)F)[nH]1 | 10.4 µM | > 100 µM | > 40 µM
CCCCCCOC(=O)c1ccc(NC(=O)c2cc(OC)c(OC)c(OC)c2Br)cc1 | 5.27 µM | 8.11 µM | > 40 µM
Cc1ccc(Oc2cc(NC(=O)CCCn3nc([N+](=O)[O-])cc3C)cc([N+](=O)[O-])c2)cc1 | 12.1 µM | 13.6 µM | > 40 µM
Cc1cccc(C(=O)Nc2nnc(-c3ccco3)o2)c1 | 0.695 µM | 3.56 µM | 37.1 µM
O=C(COC(=O)Cc1ccccc1)Nc1ccc(SC(F)F)cc1 | 36.4 µM | > 100 µM | 
COc1cc2nc(C3CCC3)nc(N3CCN(c4ccccc4OC)CC3)c2cc1OC | 3.9 µM | 6.52 µM | > 40 µM
Cc1sc2nc(CN3CCOCC3)[nH]c(=S)c2c1C | 13.3 µM | > 100 µM | > 40 µM
COc1cccc(CNc2cnc3ccccc3c2)c1O | 28.6 µM | > 100 µM | 
Cc1ccc(OCCN2CCN(CC(O)Cn3c4ccccc4c4ccccc43)CC2)cc1 (stereo unspecified) | 9.21 µM | 11.4 µM | 21.5 µM
CC1(C)CC(=O)C2=C(C1)OC(N)=C([N+](=O)[O-])C2c1ccc(C#N)s1 (stereo unspecified) | 10.9 µM | 15.2 µM | 
CCOC(=O)C1=Nc2ccccc2C1=[N+]=[N-] | 0.906 µM | 1.23 µM | 36.7 µM
O=C1/C(=C/c2cccnc2)Oc2cc(OS(=O)(=O)c3ccc(F)cc3)ccc21 | 72.6 µM | > 100 µM | 
CCOc1ccc2nc(NC(=O)C(CC)Sc3nc(C)cc(=O)[nH]3)sc2c1 (stereo unspecified) | 35.7 µM | > 100 µM | > 40 µM
COc1ccc(-c2nnc(SCC(=O)OC3CCCCC3)o2)cc1OC | < 0.195 µM | 1.04 µM | > 40 µM
CC1(C)CC(=O)C(C=Nc2ccc3c(c2)OCO3)=C(O)C1 |  | > 100 µM | 
Cc1cccc(OCCCCc2c(C)n[nH]c2C)c1 | 10.9 µM | 15.5 µM | > 40 µM
COc1ccc(C[C@H]2CN3C(=NC[C@H]3Cc3ccccc3)N2CCNC(=O)CCC2CCCCC2)cc1 | 10.9 µM | 12.3 µM | 29 µM

Structure (SMILES) | IC50 | IC90 | CC50
COc1ccc(CNC(=O)c2sc3nc4c(c(C(F)(F)F)c3c2N)CCC4)cc1OC | 12 µM | 18.3 µM | 
Cc1cccc(-c2nsc(SCC(=O)NCC3CCCO3)n2)c1 (stereo unspecified) | 1.19 µM | 4.2 µM | 
Cc1ccc(N=C/C(C(=O)C(F)(F)F)=C(\O)c2ccco2)cc1Cl |  | > 100 µM | 
S=c1[nH]cnc2scc(-c3ccc(Br)cc3)c12 |  | > 100 µM | 34.8 µM
O=C(Nc1ccccc1OC(=O)c1ccc(Cl)cc1)c1ccc(Cl)cc1 | 12 µM | 18.6 µM | 
Cc1ccc(NCCC(=O)c2cccs2)cc1Cl | 34.6 µM | > 100 µM | 
O=[N+]([O-])c1ccc(Sc2nnnn2-c2ccccc2)nc1 | 8.34 µM | 12.6 µM | 8.99 µM
Oc1c(Cl)cc(Cl)c2cccnc12 | 0.779 µM | 0.858 µM | 11.9 µM
CC1CC(C)CN(C(=O)COC(=O)c2cc3ccccc3cc2O)C1 (stereo unspecified) | 0.592 µM | 4.29 µM | 
CCOC(=O)c1ccc(N=CC2=C(O)CC(C)(C)CC2=O)cc1 | 1.35 µM | > 100 µM | 
COC(=O)c1ccc(C(=O)OC)c(NC(=O)CN2CCN(c3ccccc3)CC2)c1 | 66.1 µM | > 100 µM | > 40 µM
N=C1SCC(=O)N1c1ncc(Cc2cccc(Cl)c2)s1 | < 0.195 µM | 4.92 µM | > 40 µM
Cc1ccc(C(=O)Oc2oc(-c3ccccc3)nc2C=Nc2ccc(N(C)C)cc2)cc1 |  |  | > 40 µM
Cc1ccc(NC(=O)CSCC#N)cc1Cl | 47.5 µM | > 100 µM | 
COc1ccc(C(C[N+](=O)[O-])n2nc(C)cc2C)cc1 (stereo unspecified) |  |  | > 40 µM
CCOc1ccc2nc(NC(=O)c3ccccn3)sc2c1 | 1.36 µM | 3.07 µM | 15.1 µM
Cc1cc(=O)[nH]c(-n2nc(C)cc2C)n1 | 1.42 µM | 2.43 µM | > 40 µM
Cc1cc(OCCCCCn2ccnc2)cc(C)c1Cl | 4.17 µM | 5.19 µM | 24.6 µM
CCOC(=O)c1ccccc1-n1c(C)cc(C2N=C(N)Nc3nc4ccccc4n32)c1C (stereo unspecified) | 11.5 µM | 13.7 µM | 
CC(=O)n1cc(N(C(=O)CCl)c2ccc(Cl)cc2)c2ccccc21 | 8.88 µM | 19.6 µM | 0.662 µM
COc1ccc(C[C@H]2CN3C(=NC[C@@H]3Cc3ccccc3)N2CCNC(=O)CCC2CCCCC2)cc1 | 9.05 µM | 11.6 µM | 17.7 µM

Structure (SMILES) | IC50 | IC90 | CC50
NC1=NC[C@H](Cc2ccccc2)N1CCCCC1CCCCC1 | 10 µM | 13.6 µM | > 40 µM
COc1cnc(-c2ccccn2)nc1Sc1ccccc1Cl | 1.94 µM | 6.23 µM | 7.16 µM
Cc1ccn2c(Nc3ccccc3)c(-c3ccccn3)nc2c1 | 2.88 µM | 3.3 µM | 2.12 µM
COc1cc(N=c2c([N+](=O)[O-])nn(-c3ccc4c(c3)OCCO4)n2O)cc(OC)c1 |  |  | 16.2 µM
Cc1cc(SCC(=O)OC/C(O)=C(\C#N)c2nc3ccccc3[nH]2)c(C)cc1Br | 9.09 µM | 12.6 µM | > 40 µM
CCOC(=O)c1ccc(NC(=O)Oc2cc(C)c(Cl)cc2C(C)C)cc1 | 11.4 µM | > 100 µM | 
c1ccc(OCCOCCN2CCN(C(c3ccccc3)c3ccccc3)CC2)cc1 | 11.7 µM | 13.5 µM | > 40 µM
CCCn1c(NC(=O)c2cccc(C)c2C)nc2ccccc21 | 1 µM | 3.63 µM | 24.7 µM
CC(C)(C)C(=O)/C(=C/c1ccncc1)n1cncn1 | 8.39 µM | 11.7 µM | 5.11 µM
c1coc(CNc2nc(N3CCCCC3)nc3ccccc23)c1 | 1.49 µM | 1.69 µM | > 40 µM
CCCc1nn(C)c(C(=O)Nc2ccc(CC)cc2)c1Cl |  | > 100 µM | 
O=C(Nc1nnc(C2=COCCO2)o1)c1ccc(Cc2ccccc2)cc1 | 4.49 µM | 10.6 µM | > 40 µM
Cc1cccc(CSc2nnc(CCCCCNC(=O)OC(C)(C)C)o2)c1 | 15.3 µM | 21.3 µM | > 40 µM
O=C(Nc1ccc(C(F)(F)F)cc1)N1CCN(c2ccnc3cc(Cl)ccc23)CC1 | 8.62 µM | 15.4 µM | 8.22 µM
CCCCNC(=O)c1cc2n(n1)C(C(F)(F)F)CC(c1ccccc1)N2 (stereo unspecified) | 0.363 µM | 4.14 µM | 
O=C1CCNc2ccc(-c3ccccc3)cc21 |  | > 100 µM | 
O=C(/C=C/c1cccc([N+](=O)[O-])c1)c1cccs1 | 11.1 µM | 12.8 µM | 
CCc1ccccc1NC(=O)c1cccc(NC(=O)/C=C/c2ccco2)c1 |  |  | > 40 µM
O=[N+]([O-])c1cc(S(=O)(=O)C(F)(F)F)ccc1Sc1nc2ccccc2s1 | 0.699 µM | 0.781 µM | 12.6 µM
CCS(=O)(=O)Nc1cccc(-c2cc(-c3ccccc3)c3cc(C)ccc3n2)c1 | 5.97 µM | 11.1 µM | > 40 µM
